Test results reported in patent publication US9745311B2, “Substituted pyrrolo[2,3-b]pyrazines as FGFR inhibitors” (Incyte Corporation, priority 2012, dated 2017).
Where two headings read alike, the source gives them in different places.

Columns and labels:
FGFR3 enzyme (Millipore) = FGFR3 enzyme (Millipore) (Homo sapiens (Human), UniProt P22607); assay: biochemical
Procedure: (§1) The inhibitor potency of compounds was measured in an enzyme assay that measures peptide phosphorylation using FRET measurements to detect product formation. Inhibitors were serially diluted in DMSO and a volume of 0.5 μL was transferred to the wells of a 384-well plate. For FGFR3, a 10 μL volume of FGFR3 enzyme (Millipore) diluted in assay buffer (50 mM HEPES, 10 mM MgCl2, 1 mM EGTA, 0.01% Tween-20, 5 mM DTT, pH 7.5) was added to the plate and pre-incubated for 5-10 minutes. Appropriate controls (enzyme blank and enzyme with no inhibitor) were included on the plate. […] The plate was incubated at 25° C. for 1 hr. […] The plate was allowed to equilibrate for ˜1 hr before scanning the wells on a PheraStar plate reader.
(§2) GraphPad prism3 was used to analyze the data. The IC50 values were derived by fitting the data to the equation for a sigmoidal dose-response with a variable slope. Y=Bottom+(Top−Bottom)/(1+10^((Log IC50−X)*HillSlope)) where X is the logarithm of concentration and Y is the response.

FGFR2 = FGFR2 (Homo sapiens (Human), UniProt P21802); assay: FGFR Enzymatic Assay (FGFR2); type: biochemical;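 note: FRET read-out of peptide phosphorylation by the purified kinase, with enzyme-free blank and uninhibited enzyme as controls, potency from a variable-slope sigmoidal dose-response fit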
Chain of FGFR2 (P21802 22-821): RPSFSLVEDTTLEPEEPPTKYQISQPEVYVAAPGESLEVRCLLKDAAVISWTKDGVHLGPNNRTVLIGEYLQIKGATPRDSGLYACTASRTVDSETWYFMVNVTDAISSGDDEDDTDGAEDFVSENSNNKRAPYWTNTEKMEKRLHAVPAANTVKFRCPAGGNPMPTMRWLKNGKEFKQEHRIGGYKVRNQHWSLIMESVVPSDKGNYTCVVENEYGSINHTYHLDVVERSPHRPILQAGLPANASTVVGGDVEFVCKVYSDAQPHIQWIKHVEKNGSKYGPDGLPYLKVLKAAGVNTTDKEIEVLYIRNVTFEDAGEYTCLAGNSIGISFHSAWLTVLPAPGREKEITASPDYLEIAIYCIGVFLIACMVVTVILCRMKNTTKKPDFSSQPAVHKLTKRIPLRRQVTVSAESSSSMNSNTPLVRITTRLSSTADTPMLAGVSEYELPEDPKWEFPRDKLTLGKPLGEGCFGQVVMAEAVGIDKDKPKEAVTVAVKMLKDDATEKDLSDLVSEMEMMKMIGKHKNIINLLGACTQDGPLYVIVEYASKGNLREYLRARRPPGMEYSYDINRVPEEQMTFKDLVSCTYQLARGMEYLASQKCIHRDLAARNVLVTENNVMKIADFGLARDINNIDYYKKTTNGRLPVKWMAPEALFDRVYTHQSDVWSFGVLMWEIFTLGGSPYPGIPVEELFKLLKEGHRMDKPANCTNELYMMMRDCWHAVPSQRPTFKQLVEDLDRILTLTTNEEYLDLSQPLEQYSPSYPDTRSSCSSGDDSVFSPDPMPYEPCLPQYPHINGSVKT
Procedure: as §1, §2

FGFR1 = FGFR1 (Homo sapiens (Human), UniProt P11362); assay: FGFR Enzymatic Assay (FGFR1); type: biochemical; conditions: enzyme 0.02 nM, ATP 210 μM
Chain of FGFR1 (P11362 22-822): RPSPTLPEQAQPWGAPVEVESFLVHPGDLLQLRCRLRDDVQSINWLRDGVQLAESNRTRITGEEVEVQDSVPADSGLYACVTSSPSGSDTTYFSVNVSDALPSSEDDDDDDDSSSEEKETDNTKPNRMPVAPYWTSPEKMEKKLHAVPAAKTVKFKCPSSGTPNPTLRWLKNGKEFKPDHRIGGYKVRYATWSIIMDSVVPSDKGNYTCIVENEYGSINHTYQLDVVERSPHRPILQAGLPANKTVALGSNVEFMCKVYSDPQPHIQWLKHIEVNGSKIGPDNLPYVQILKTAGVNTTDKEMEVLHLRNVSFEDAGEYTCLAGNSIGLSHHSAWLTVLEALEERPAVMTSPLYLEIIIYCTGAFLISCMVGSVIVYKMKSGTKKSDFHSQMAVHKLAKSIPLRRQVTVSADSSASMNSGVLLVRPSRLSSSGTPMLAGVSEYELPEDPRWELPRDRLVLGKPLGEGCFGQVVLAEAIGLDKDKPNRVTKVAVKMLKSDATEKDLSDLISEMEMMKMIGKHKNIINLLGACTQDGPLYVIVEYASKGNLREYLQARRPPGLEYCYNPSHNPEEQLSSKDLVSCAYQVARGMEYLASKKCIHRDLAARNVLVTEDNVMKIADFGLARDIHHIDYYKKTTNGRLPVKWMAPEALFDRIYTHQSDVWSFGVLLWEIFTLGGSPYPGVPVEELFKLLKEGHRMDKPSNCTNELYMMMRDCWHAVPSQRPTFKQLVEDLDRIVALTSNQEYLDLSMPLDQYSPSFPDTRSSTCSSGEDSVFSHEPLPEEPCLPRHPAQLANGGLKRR
Procedure: as §1, §2

[1] = enzyme 0.01 nM, ATP 100 μM, read-out: FGFR2 IC50

Chain of FGFR3 enzyme (Millipore) (P22607 23-806): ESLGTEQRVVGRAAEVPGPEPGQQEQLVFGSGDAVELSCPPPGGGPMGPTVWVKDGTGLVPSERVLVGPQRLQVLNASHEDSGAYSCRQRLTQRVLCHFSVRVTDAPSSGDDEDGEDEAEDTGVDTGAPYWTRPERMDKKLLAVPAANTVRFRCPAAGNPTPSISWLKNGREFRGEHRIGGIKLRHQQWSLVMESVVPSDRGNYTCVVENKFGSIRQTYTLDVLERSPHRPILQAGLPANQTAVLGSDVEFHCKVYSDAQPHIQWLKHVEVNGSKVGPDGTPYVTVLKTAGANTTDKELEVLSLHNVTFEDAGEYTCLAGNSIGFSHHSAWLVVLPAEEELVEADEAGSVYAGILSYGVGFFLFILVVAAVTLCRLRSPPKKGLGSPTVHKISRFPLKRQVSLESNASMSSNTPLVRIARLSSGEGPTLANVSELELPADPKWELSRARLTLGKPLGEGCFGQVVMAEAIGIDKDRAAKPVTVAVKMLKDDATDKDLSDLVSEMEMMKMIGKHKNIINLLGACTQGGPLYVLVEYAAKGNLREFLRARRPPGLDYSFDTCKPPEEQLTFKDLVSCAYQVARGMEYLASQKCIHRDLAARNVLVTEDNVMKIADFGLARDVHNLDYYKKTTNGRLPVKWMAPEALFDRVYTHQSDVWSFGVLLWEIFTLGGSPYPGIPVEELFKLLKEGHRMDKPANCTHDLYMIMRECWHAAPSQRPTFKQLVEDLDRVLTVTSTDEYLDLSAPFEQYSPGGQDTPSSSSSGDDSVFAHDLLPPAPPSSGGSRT

For `COc1cc(CCc2cnc3[nH]c(-c4ccccc4C)cc3n2)cc(OC)c1` [Example 9, 2-[2-(3,5-dimethoxyphenyl)ethyl]-6-(2-methylphenyl)-5H-pyrrolo[2,3-b]pyrazine], the IC50 (FGFR3 enzyme (Millipore)) was 500 to 2700 nM, the IC50 (FGFR2) was 100 to 500 nM and the IC50 (FGFR1) was under 100 nM.

In the case of `COc1cc(CCc2cnc3[nH]c(-c4ccccc4C#N)cc3n2)cc(OC)c1` [Example 10, 2-{2-[2-(3,5-dimethoxyphenyl)ethyl]-5H-pyrrolo[2,3-b]pyrazin-6-yl}benzonitrile], the IC50 (FGFR3 enzyme (Millipore)) is reported as 500 to 2700 nM, the IC50 (FGFR2; [1]) is reported as under 100 nM and the IC50 (FGFR1) is reported as under 100 nM.

`COc1cc(CCc2cnc3[nH]c(-c4ccc(CC#N)cc4)cc3n2)cc(OC)c1` [Example 14, (4-{2-[2-(3,5-dimethoxyphenyl)ethyl]-5H-pyrrolo[2,3-b]pyrazin-6-yl}phenyl)acetonitrile] gave an IC50 (FGFR3 enzyme (Millipore)) of 100 to 500 nM, an IC50 (FGFR2; [1]) of under 100 nM and an IC50 (FGFR1) of under 100 nM.

Work on `COc1cc(CCc2cnc3[nH]c(-c4ccc(N5CCN(C)CC5)nc4)cc3n2)cc(OC)c1` [Example 16, 2-[2-(3,5-dimethoxyphenyl)ethyl]-6-[6-(4-methylpiperazin-1-yl)pyridin-3-yl]-5H-pyrrolo[2,3-b]pyrazine] yielded an IC50 (FGFR3 enzyme (Millipore)) of 100 to 500 nM, an IC50 (FGFR2; [1]) of under 100 nM and an IC50 (FGFR1) of under 100 nM.

In the case of `CNC(=O)c1ccc(-c2cc3nc(CCc4cc(OC)cc(OC)c4)cnc3[nH]2)cn1` [Example 17, 5-{2-[2-(3,5-dimethoxyphenyl)ethyl]-5H-pyrrolo[2,3-b]pyrazin-6-yl}-N-methylpyridine-2-carboxamide], the IC50 (FGFR3 enzyme (Millipore)) is reported as 100 to 500 nM, the IC50 (FGFR2; [1]) is reported as under 100 nM and the IC50 (FGFR1) is reported as under 100 nM.

`COc1cc(CCc2cnc3[nH]c(-c4cncc(C(=O)N5CCOCC5)c4)cc3n2)cc(OC)c1` [Example 18, 2-[2-(3,5-dimethoxyphenyl)ethyl]-6-[5-(morpholin-4-ylcarbonyl)pyridin-3-yl]-5H-pyrrolo[2,3-b]pyrazine] gave an IC50 (FGFR3 enzyme (Millipore)) of 500 to 2700 nM, an IC50 (FGFR2; [1]) of under 100 nM and an IC50 (FGFR1) of under 100 nM.

With `COc1cc(CCc2cnc3[nH]c(C4=CCN(C)CC4)cc3n2)cc(OC)c1` [Example 23, 2-[2-(3,5-dimethoxyphenyl)ethyl]-6-(1-methyl-1,2,3,6-tetrahydropyridin-4-yl)-5H-pyrrolo[2,3-b]pyrazine] the IC50 (FGFR3 enzyme (Millipore)) was 100 to 500 nM, the IC50 (FGFR2; [1]) was under 100 nM and the IC50 (FGFR1) was under 100 nM.

For `COc1cc(CCc2cnc3[nH]c(-c4cn[nH]c4)cc3n2)cc(OC)c1` [Example 29, 2-[2-(3,5-dimethoxyphenyl)ethyl]-6-(1H-pyrazol-4-yl)-5H-pyrrolo[2,3-b]pyrazine], the IC50 (FGFR3 enzyme (Millipore)) was 100 to 500 nM, the IC50 (FGFR2; [1]) was under 100 nM and the IC50 (FGFR1) was under 100 nM.

In the case of `COc1cc(CCc2cnc3[nH]c(-c4cnn(C)c4)cc3n2)cc(OC)c1` [Example 30, 2-[2-(3,5-dimethoxyphenyl)ethyl]-6-(1-methyl-1H-pyrazol-4-yl)-5H-pyrrolo[2,3-b]pyrazine], the IC50 (FGFR3 enzyme (Millipore)) is reported as 100 to 500 nM, the IC50 (FGFR2; [1]) is reported as under 100 nM and the IC50 (FGFR1) is reported as under 100 nM.

`COc1cc(CCc2cnc3[nH]c(-c4cnn(C5CCN(C)CC5)c4)cc3n2)cc(OC)c1` [Example 37, 2-[2-(3,5-dimethoxyphenyl)ethyl]-6-[1-(1-methylpiperidin-4-yl)-1H-pyrazol-4-yl]-5H-pyrrolo[2,3-b]pyrazine] showed an IC50 (FGFR3 enzyme (Millipore)) of 100 to 500 nM, an IC50 (FGFR2; [1]) of under 100 nM and an IC50 (FGFR1) of under 100 nM.

With `COc1cc(CCc2cnc3[nH]c(-c4cnn(CCO)c4)cc3n2)cc(OC)c1` [Example 38, 2-(4-{2-[2-(3,5-dimethoxyphenyl)ethyl]-5H-pyrrolo[2,3-b]pyrazin-6-yl}-1H-pyrazol-1-yl)ethanol] the IC50 (FGFR3 enzyme (Millipore)) was 100 to 500 nM, the IC50 (FGFR2; [1]) was under 100 nM and the IC50 (FGFR1) was under 100 nM.

`COc1cc(CCc2cnc3[nH]c(-c4cnn(CCN5CCN(C)CC5)c4)cc3n2)cc(OC)c1` [Example 42, 2-[2-(3,5-dimethoxyphenyl)ethyl]-6-{1-[2-(4-methylpiperazin-1-yl)ethyl]-1H-pyrazol-4-yl}-5H-pyrrolo[2,3-b]pyrazine] was tested, and the IC50 (FGFR3 enzyme (Millipore)) was 100 to 500 nM, the IC50 (FGFR2; [1]) was under 100 nM and the IC50 (FGFR1) was under 100 nM.

In the case of `COc1cc(CCc2cnc3[nH]c(-c4cnn(CC(=O)N(C)C)c4)cc3n2)cc(OC)c1` [Example 43, 2-(4-{2-[2-(3,5-dimethoxyphenyl)ethyl]-5H-pyrrolo[2,3-b]pyrazin-6-yl}-1H-pyrazol-1-yl)-N,N-dimethylacetamide], the IC50 (FGFR3 enzyme (Millipore)) is reported as 100 to 500 nM, the IC50 (FGFR2; [1]) is reported as under 100 nM and the IC50 (FGFR1) is reported as under 100 nM.

`CNC(=O)c1c(-c2ccc(N3CCN(C)CC3)cc2)[nH]c2ncc(CCc3cc(OC)cc(OC)c3)nc12` [Example 50, 2-[2-(3,5-dimethoxyphenyl)ethyl]-N-methyl-6-[4-(4-methylpiperazin-1-yl)phenyl]-5H-pyrrolo[2,3-b]pyrazine-7-carboxamide] was tested, and the IC50 (FGFR3 enzyme (Millipore)) was 500 to 2700 nM, the IC50 (FGFR2; [1]) was under 100 nM and the IC50 (FGFR1) was under 100 nM.

`COc1cc(CCc2cnc3[nH]c(-c4ccc(F)c(C(=O)N(C)C)c4)cc3n2)cc(OC)c1` [Example 54, 5-(2-(3,5-Dimethoxyphenethyl)-5H-pyrrolo[2,3-b]pyrazin-6-yl)-2-fluoro-N,N-dimethylbenzamide] was tested, and the IC50 (FGFR3 enzyme (Millipore)) was 100 to 500 nM, the IC50 (FGFR2; [1]) was under 100 nM and the IC50 (FGFR1) was under 100 nM.

Compound `COc1cc(CCc2cnc3[nH]c(-c4ccnc(N5CCN(C)CC5)c4)cc3n2)cc(OC)c1` [Example 55, 2-(3,5-Dimethoxyphenethyl)-6-(2-(4-methylpiperazin-1-yl)pyridin-4-yl)-5H-pyrrolo[2,3-b]pyrazine] has an IC50 (FGFR3 enzyme (Millipore)) of 100 to 500 nM, an IC50 (FGFR2; [1]) of under 100 nM and an IC50 (FGFR1) of under 100 nM.

`COc1cc(CCc2cnc3[nH]c(-c4cnc(N)nc4)cc3n2)cc(OC)c1` [Example 58, 5-(2-(3,5-Dimethoxyphenethyl)-5H-pyrrolo[2,3-b]pyrazin-6-yl)pyrimidin-2-amine] gave an IC50 (FGFR3 enzyme (Millipore)) of 100 to 500 nM, an IC50 (FGFR2; [1]) of under 100 nM and an IC50 (FGFR1) of under 100 nM.

With `COc1cc(CCc2cnc3[nH]c(-c4ccc(C(=O)N(C)C)nc4)cc3n2)cc(OC)c1` [Example 59, 5-(2-(3,5-Dimethoxyphenethyl)-5H-pyrrolo[2,3-b]pyrazin-6-yl)-N,N-dimethylpicolinamide] the IC50 (FGFR3 enzyme (Millipore)) was 100 to 500 nM, the IC50 (FGFR2; [1]) was under 100 nM and the IC50 (FGFR1) was under 100 nM.

`COc1cc(CCc2cnc3[nH]c(-c4ccnc(C#N)c4)cc3n2)cc(OC)c1` [Example 60, 4-(2-(3,5-Dimethoxyphenethyl)-5H-pyrrolo[2,3-b]pyrazin-6-yl)picolinonitrile] showed an IC50 (FGFR3 enzyme (Millipore)) of 100 to 500 nM, an IC50 (FGFR2; [1]) of under 100 nM and an IC50 (FGFR1) of under 100 nM.

In the case of `COc1cc(CCc2cnc3[nH]c(-c4ccc(OC)nc4)cc3n2)cc(OC)c1` [Example 61, 2-(3,5-Dimethoxyphenethyl)-6-(6-methoxypyridin-3-yl)-5H-pyrrolo[2,3-b]pyrazine], the IC50 (FGFR3 enzyme (Millipore)) is reported as 100 to 500 nM, the IC50 (FGFR2; [1]) is reported as under 100 nM and the IC50 (FGFR1) is reported as under 100 nM.

`COc1cc(CCc2cnc3[nH]c(-c4ccc5cnn(C)c5c4)cc3n2)cc(OC)c1` [Example 63, 2-(3,5-Dimethoxyphenethyl)-6-(1-methyl-1H-indazol-6-yl)-5H-pyrrolo[2,3-b]pyrazine] was tested, and the IC50 (FGFR3 enzyme (Millipore)) was 100 to 500 nM, the IC50 (FGFR2; [1]) was under 100 nM and the IC50 (FGFR1) was under 100 nM.

`COc1cc(CCc2cnc3[nH]c(-c4ccc(NC(C)=O)nc4)cc3n2)cc(OC)c1` [Example 67, N-(5-(2-(3,5-Dimethoxyphenethyl)-5H-pyrrolo[2,3-b]pyrazin-6-yl)pyridin-2-yl)acetamide] showed an IC50 (FGFR3 enzyme (Millipore)) of 100 to 500 nM, an IC50 (FGFR2; [1]) of under 100 nM and an IC50 (FGFR1) of under 100 nM.

In the case of `COc1cc(CCc2cnc3[nH]c(-c4ccc(N5CCCC5=O)nc4)cc3n2)cc(OC)c1` [Example 68, 1-(5-(2-(3,5-Dimethoxyphenethyl)-5H-pyrrolo[2,3-b]pyrazin-6-yl)pyridin-2-yl)pyrrolidin-2-one], the IC50 (FGFR3 enzyme (Millipore)) is reported as 100 to 500 nM, the IC50 (FGFR2; [1]) is reported as under 100 nM and the IC50 (FGFR1) is reported as under 100 nM.

`COc1cc(CCc2cnc3[nH]c(-c4cncc(N5CCOCC5)c4)cc3n2)cc(OC)c1` [Example 69, 4-(5-(2-(3,5-Dimethoxyphenethyl)-5H-pyrrolo[2,3-b]pyrazin-6-yl)pyridin-3-yl)morpholine] gave an IC50 (FGFR3 enzyme (Millipore)) of 100 to 500 nM, an IC50 (FGFR2; [1]) of under 100 nM and an IC50 (FGFR1) of under 100 nM.

In the case of `COc1cc(CCc2cnc3[nH]c(-c4ccc5[nH]ncc5c4)cc3n2)cc(OC)c1` [Example 70, 2-(3,5-Dimethoxyphenethyl)-6-(1H-indazol-5-yl)-5H-pyrrolo[2,3-b]pyrazine], the IC50 (FGFR3 enzyme (Millipore)) is reported as 100 to 500 nM, the IC50 (FGFR2; [1]) is reported as under 100 nM and the IC50 (FGFR1) is reported as under 100 nM.

Compound `COc1cc(CCc2cnc3[nH]c(-c4ccnc(C(=O)N(C)C)c4)cc3n2)cc(OC)c1` [Example 74, 4-(2-(3,5-Dimethoxyphenethyl)-5H-pyrrolo[2,3-b]pyrazin-6-yl)-N,N-dimethylpicolinamide] has an IC50 (FGFR3 enzyme (Millipore)) of 100 to 500 nM, an IC50 (FGFR2; [1]) of under 100 nM and an IC50 (FGFR1) of under 100 nM.

In the case of `COc1cc(CCc2cnc3[nH]c(-c4ccnc(C(=O)N5CC(O)C5)c4)cc3n2)cc(OC)c1` [Example 75, (4-(2-(3,5-Dimethoxyphenethyl)-5H-pyrrolo[2,3-b]pyrazin-6-yl)pyridin-2-yl)(3-hydroxyazetidin-1-yl)methanone], the IC50 (FGFR3 enzyme (Millipore)) is reported as 100 to 500 nM, the IC50 (FGFR2; [1]) is reported as under 100 nM and the IC50 (FGFR1) is reported as under 100 nM.
